Test results: patent US9993492B2, “Lysophospholipids and lysophospholipid analogues against honeybee brood diseases” (University of Graz, priority 2013, dated 2018)
Where two headings read alike, the source gives them in different places.

Assays:
Paenibacillus larvae = assay: Antimicrobial assay in BHI liquid medium, vegetative forms of Paenibacillus larvae (MIC); type: cell-based; settings: for MIC: Paenibacillus larvae
Description: For the evaluation of certain fatty acids and phospholipids, overnight cultures of vegetative forms of Pl were used (for results see Table 1.1).
(§1) As test organisms, several different strains of Paenibacillus larvae were used.
(§2) Overnight cultures of the vegetative forms of bacteria were prepared in BHI (brain heart infusion) liquid medium.
From these overnight cultures, an inoculum of 50 μl is added to 1.0 ml of BHI liquid medium to perform the bacterial test in liquid medium. The compound 1-O-oleoyl-sn-glycero-3-phosphocholine (oleoyl-LPC) together with a positive control was then added at concentrations of 2, 5 and 10 ppm and the test tubes were incubated for 24 h at 34.5° C. Then, the extinction of the solution was measured photometrically.

[1] = system: spores of Paenibacillus larvae; assay: Spore assay in BHI liquid medium with plating for CFU; type: cell-based; settings: lowest investigated dose (5 ppm); 114.6±28.4 spores per vial; 4 and 6 days
Description: A stock solution containing spores at a known concentration is used to inoculate c. 100 spores/mL medium. This assay is carried out in 20 mL cultivation tubes containing 1.0 mL of BHI (brain heart infusion) liquid medium. To this medium containing c. […] spores, test compounds are added at different concentrations (e.g., 2, 5 and 10 ppm), together with positive control (penicillin G at 5 ppm) and blank control.
To verify inoculation with c. 100 spores/mL, tubes containing BHI+spores are plated out immediately on agar plates to assess the number of colony forming units (CFU) after 6 days of incubation at 34.5° C.
For the control of viability of the spores, the turbidity (due to germination of spores and formation of vegetative forms) of tubes containing BHI+spores is evaluated on day 4.
For the test probes, bacterial growth is evaluated on day 4 and 6. For those tubes which are negative for bacterial growth, the whole medium (c. 1 mL) is plated onto agar plates and evaluated for CFUs after 2 and 6 days of incubation. CFUs visible after two days result from vegetative forms, while CFUs appearing after […] stem from spores.
The results of these tests allow identifying whether the tested compounds have an effect on spore germination in liquid medium and the viability of the spores as assessed by their germination on agar plates. […]

[2] = system: Paenibacillus larvae (Eric II test strain); assay: Inhibition zone test on Columbia agar; type: cell-based; settings: Paenibacillus larvae, 24 h, 34.5° C.
Description: as §1, §2
For the inhibition zone test, 500 μL of overnight culture were added to 15-20 mL of Columbia agar, mixed and poured onto a petri dish. After the agar solidified, either punched wholes are filled with different amounts of test compounds or test compounds are pipetted on paper discs (5 mm Ø). The plate is then incubated for 24 h (34.5° C.) and zones of inhibition are measured and given in mm. Lactic acid and penicillin G were used as positive controls.
E II—Eric II (test strain of Pl)

honeybee larvae [3] = type: in vivo; settings: LPC 10 μg/larva added on day 1, Nlarvae 192
Description: First instar larvae were transferred into plastic queen cups and fed the following diets: On the first day 10 μL of diet containing 6% glucose, 6% fructose, 1% yeast extract and 50% royal jelly were fed. Test substances (1-O-oleoyl-sn-glycero-3-phosphocholine (oleoyl-LPC), stearic acid, lysophosphatidylinositol and linoleic acid) were added to the first diet in amounts of 0.5 to 10 μg/larvae. For infection with spores of Paenibacillus larvae, larvae were grafted into 5 μL of diet containing test substances and subsequently 5 μL of diet with about 50 added Pl spores were given. Larvae were not fed on the second day to assure the consumption of the given diet. On the third day 20 μL of diet containing 7.5% glucose, 7.5% fructose, 1.5% yeast extract and 50% royal jelly were fed. Amounts of 30, 40 and 60 μL of diet composed of 9% glucose, 9% fructose, 2% yeast extract and 50% royal jelly were fed on the 4th, 5th and 6th day (method modified after Aupinel et al. [Aupinel et al. 2005. Bull Insectol 58:107-111]. Larvae were incubated at 34.5° C. and 95% relative humidity which was reduced to 80% on day 7. The mortality was checked daily for the first 7 days and when individuals emerged from queen cups at day 18 after the transfer into cups. To reduce the time for sporulation of Pl in the lab for security reasons, infection tests with Pl spores were stopped at day 7 with some experiments extend to day 12.
Larvae were fed according to a slightly modified rearing method of Aupinel et al., (2005). Larvae were fed for 6 days with different amounts of diets which always contained 50% of an aqueous solution (A, B, C) and 50% royal jelly (w/w). The solutions consisted of yeast extract (A=2%, B=3%, C=4%), glucose and fructose (A=12%, B=15%, C=18% each). 50 g portions of royal jelly (purchased from the Styrian school of beekeepers) were freeze stored at −20° C. Once a day all components of the needed diet were mixed freshly, warmed and fed to the larvae with a micro-pipette. On day 1 and 2 each larva was fed with 10 μL of diet A, on day three with 20 μL of diet B, on day four (30 μL), five (40 μL) and six (50 μL) with diet C. This way, each larva was supported with a total amount of 160 μL of food. The test compounds (see Table 4) were added each at the respective concentration on day 1, i.e. stearic acid (10 μg/larva), lysophosphatidylinositol (5 μg/larva), linoleic acid (12 μg/larva) and oleyol-LPC (10 μg/larva). Each larva was checked for its state of health under the binocular before feeding. A larva was defined healthy when movements of spiracles could be observed and it was shiny and plump. Cups with dead larvae were removed from the plate to prevent infections. To avoid microbial contamination, feeding took place under a laminar flow. Larvae were incubated at 34.5° C. and 90% RH. The mortality rates of the larvae are given below in table 4.1.

honeybee larvae [4] = assay: LPC tolerance in non-infected artificially reared larvae, mortality until day 12; type: in vivo, Apis mellifera; settings: LPC 10 μg/larva on day 1, 2 and 3, no spores, replicates separated by /, Nlarvae 70/48/47/48/40

`CCCCCCCC/C=C\CCCCCCCC(=O)OC[C@@H](O)COP(=O)([O-])OCC[N+](C)(C)C` [1-O-oleoyl-sn-glycero-3-phosphocholine] showed an MIC (Paenibacillus larvae; 24 h, vegetative forms of Pl, liquid medium, read-out: MIC (ppm)) of 2 to 5 µg/mL, an MIC (Paenibacillus larvae; in vitro, read-out: in vitro Pl inhibitory activity, MIC) of 2.5 µg/mL and an MIC (Paenibacillus larvae; vegetative forms of Pl, liquid medium, read-out: MIC) of over 3.8 µM. The “inhibitory / antibacterial activity against Pl (in words)” value (Paenibacillus larvae; in vitro) was “good in vitro Pl inhibitory activity”, the “killing of vegetative forms upon germination of spores” value [1] was “all vegetative forms are killed” and the zone of inhibition at 5 µg/disc ([2]; amount 5 μg) was 3.5 mm. For the same molecule, the zone of inhibition at 10 µg/disc ([2]; amount 10 μg) was 5 mm, the “Ndead larvae day 1” value (honeybee larvae [3]) was 0 and the “Ndead larvae day 2” value (honeybee larvae [3]) was 7. For the same molecule, the “Ndead larvae day 3” value (honeybee larvae [3]) was 1, the “Ndead larvae day 4” value (honeybee larvae [3]) was 1 and the “Ndead larvae day 5” value (honeybee larvae [3]) was 0. For the same molecule, the “Ndead larvae day 6” value (honeybee larvae [3]) was 0, the “Ndead larvae day 7” value (honeybee larvae [3]) was 4 and the Ndead larvae total (honeybee larvae [3]; days 1-7) was 13. The Ndead larvae total (honeybee larvae [4]; days 1-12) was 9/6/5/3/3, the “Ndead larvae day 1” value (honeybee larvae [4]) was 0/0/0/0/0 and the “Ndead larvae day 2” value (honeybee larvae [4]) was 0/2/0/0/0. For the same molecule, the “Ndead larvae day 3” value (honeybee larvae [4]) was 0/0/3/0/0, the “Ndead larvae day 4” value (honeybee larvae [4]) was 1/0/1/0/1 and the “Ndead larvae day 5” value (honeybee larvae [4]) was 0/0/0/0/0. For the same molecule, the “Ndead larvae day 6” value (honeybee larvae [4]) was 1/1/0/0/1, the “Ndead larvae day 7” value (honeybee larvae [4]) was 0/0/1/0/0 and the “Ndead larvae day 8” value (honeybee larvae [4]) was 2/0/0/0/0. The “Ndead larvae day 9” value (honeybee larvae [4]) was 1/2/0/3/0, the “Ndead larvae day 10” value (honeybee larvae [4]) was 2/0/0/0/0 and the “Ndead larvae day 11” value (honeybee larvae [4]) was 0/1/0/0/1. For the same molecule, the “Ndead larvae day 12” value (honeybee larvae [4]) was 2/0/0/0/0.
